According to PubChem BioAssay (NCI):
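Tested at 5 concentrations; 48 h exposure; 96-well plates; endpoints linearly interpolated, else capped at highest concentration. At the GI50, growth is halved. TGI denotes the concentration required for complete inhibition of growth.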

Experiments:
Experiment in all cases: NCI-60 cell line screen, 48 h
OVCAR-3 ovarian = tested on: OVCAR-3 ovarian
OVCAR-4 ovarian = tested on: OVCAR-4 ovarian
MCF7 breast = tested on: MCF7 breast
SK-MEL-2 melanoma = tested on: SK-MEL-2 melanoma
LOX IMVI melanoma = tested on: LOX IMVI melanoma
HT29 colon = tested on: HT29 colon
HCC-2998 colon = tested on: HCC-2998 colon
M14 melanoma = tested on: M14 melanoma
IGROV1 ovarian = tested on: IGROV1 ovarian
NCI-H460 lung = tested on: NCI-H460 lung
HOP-92 NSCLC = tested on: HOP-92 NSCLC
MDA-MB-435 = tested on: MDA-MB-435
COLO 205 colon = tested on: COLO 205 colon
KM12 colon = tested on: KM12 colon
U251 CNS = tested on: U251 CNS
EKVX NSCLC = tested on: EKVX NSCLC
OVCAR-5 ovarian = tested on: OVCAR-5 ovarian
SW-620 colon = tested on: SW-620 colon
T-47D breast = tested on: T-47D breast
PC-3 prostate = tested on: PC-3 prostate
A549 NSCLC = tested on: A549 NSCLC
HOP-62 NSCLC = tested on: HOP-62 NSCLC
HCT-15 colon = tested on: HCT-15 colon
NCI-H23 lung = tested on: NCI-H23 lung
NCI/ADR-RES ovarian = tested on: NCI/ADR-RES ovarian
SN12C renal = tested on: SN12C renal
SK-MEL-28 melanoma = tested on: SK-MEL-28 melanoma
OVCAR-8 ovarian = tested on: OVCAR-8 ovarian
CCRF-CEM leukemia = tested on: CCRF-CEM leukemia
CAKI-1 renal = tested on: CAKI-1 renal
SNB-19 CNS = tested on: SNB-19 CNS
SK-OV-3 ovarian = tested on: SK-OV-3 ovarian
NCI-H522 lung = tested on: NCI-H522 lung
NCI-H226 lung = tested on: NCI-H226 lung
MOLT-4 leukemia = tested on: MOLT-4 leukemia
SF-268 CNS = tested on: SF-268 CNS
MDA-N = tested on: MDA-N
786-0 renal = tested on: 786-0 renal
HL-60(TB) leukemia = tested on: HL-60(TB) leukemia
HS 578T breast = tested on: HS 578T breast
UACC-257 melanoma = tested on: UACC-257 melanoma
MDA-MB-231 breast = tested on: MDA-MB-231 breast
HCT-116 colon = tested on: HCT-116 colon
RPMI-8226 leukemia = tested on: RPMI-8226 leukemia
ACHN renal = tested on: ACHN renal
BT-549 breast = tested on: BT-549 breast
MALME-3M melanoma = tested on: MALME-3M melanoma
SF-539 CNS = tested on: SF-539 CNS
SK-MEL-5 melanoma = tested on: SK-MEL-5 melanoma
SF-295 CNS = tested on: SF-295 CNS
K-562 leukemia = tested on: K-562 leukemia
UACC-62 melanoma = tested on: UACC-62 melanoma
RXF 393 renal = tested on: RXF 393 renal
A498 renal = tested on: A498 renal
SNB-75 CNS = tested on: SNB-75 CNS
TK-10 renal = tested on: TK-10 renal
SR leukemia = tested on: SR leukemia
DU-145 prostate = tested on: DU-145 prostate

COc1ccc(C2SC(N)=Nc3c2c(C)nn3C(=O)c2ccccc2O)cc1 (stereo unspecified)
TGI (OVCAR-3 ovarian): 7480 nM | TGI (OVCAR-4 ovarian): > 10000 nM | TGI (MCF7 breast): > 10000 nM | TGI (SK-MEL-2 melanoma): > 10000 nM | TGI (LOX IMVI melanoma): > 10000 nM | TGI (HT29 colon): > 10000 nM | TGI (HCC-2998 colon): > 10000 nM | TGI (M14 melanoma): > 10000 nM | TGI (IGROV1 ovarian): > 10000 nM | TGI (NCI-H460 lung): > 10000 nM | TGI (HOP-92 NSCLC): > 10000 nM | TGI (MDA-MB-435): > 10000 nM | TGI (COLO 205 colon): > 10000 nM | TGI (KM12 colon): > 10000 nM | TGI (U251 CNS): > 10000 nM | TGI (EKVX NSCLC): > 10000 nM | TGI (OVCAR-5 ovarian): > 10000 nM | TGI (SW-620 colon): > 10000 nM | TGI (T-47D breast): > 10000 nM | TGI (PC-3 prostate): > 10000 nM | TGI (A549 NSCLC): > 10000 nM | TGI (HOP-62 NSCLC): > 10000 nM | TGI (HCT-15 colon): > 10000 nM | TGI (NCI-H23 lung): > 10000 nM | TGI (NCI/ADR-RES ovarian): > 10000 nM | TGI (SN12C renal): > 10000 nM | TGI (SK-MEL-28 melanoma): > 10000 nM | TGI (OVCAR-8 ovarian): > 10000 nM | TGI (CCRF-CEM leukemia): > 10000 nM | TGI (CAKI-1 renal): > 10000 nM | TGI (SNB-19 CNS): > 10000 nM | TGI (SK-OV-3 ovarian): > 10000 nM | TGI (NCI-H522 lung): > 10000 nM | TGI (NCI-H226 lung): > 10000 nM | TGI (MOLT-4 leukemia): > 10000 nM | TGI (SF-268 CNS): > 10000 nM | TGI (MDA-N): > 10000 nM | TGI (786-0 renal): > 10000 nM | TGI (HL-60(TB) leukemia): 5210 nM | TGI (HS 578T breast): > 10000 nM | TGI (UACC-257 melanoma): > 10000 nM | TGI (MDA-MB-231 breast): 9790 nM | TGI (HCT-116 colon): > 10000 nM | TGI (RPMI-8226 leukemia): 6990 nM | TGI (ACHN renal): > 10000 nM | TGI (BT-549 breast): > 10000 nM | TGI (MALME-3M melanoma): > 10000 nM | TGI (SF-539 CNS): 628 nM | TGI (SK-MEL-5 melanoma): > 10000 nM | TGI (SF-295 CNS): > 10000 nM | TGI (K-562 leukemia): 3850 nM | TGI (UACC-62 melanoma): > 10000 nM | TGI (RXF 393 renal): > 10000 nM

CC(=O)OCc1cnc2c3c(nc4ccccc4c13)C(=O)c1cccnc1-2
GI50 (OVCAR-3 ovarian): 30 nM | GI50 (OVCAR-4 ovarian): 32.9 nM | TGI (OVCAR-4 ovarian): 390 nM | GI50 (A498 renal): 162 nM | TGI (A498 renal): 790 nM | GI50 (SNB-75 CNS): 68.3 nM | TGI (SNB-75 CNS): 414 nM | GI50 (MCF7 breast): < 11.8 nM | TGI (MCF7 breast): 90.4 nM | GI50 (SK-MEL-2 melanoma): 482 nM | TGI (SK-MEL-2 melanoma): 1960 nM | GI50 (LOX IMVI melanoma): < 10 nM | TGI (LOX IMVI melanoma): 51.7 nM | GI50 (HT29 colon): 193 nM | TGI (HT29 colon): 634 nM | GI50 (TK-10 renal): 57.3 nM | TGI (TK-10 renal): 420 nM | GI50 (HCC-2998 colon): 102 nM | TGI (HCC-2998 colon): 535 nM | GI50 (M14 melanoma): 25.5 nM | TGI (M14 melanoma): 125 nM | GI50 (IGROV1 ovarian): 124 nM | TGI (IGROV1 ovarian): 1890 nM | GI50 (NCI-H460 lung): 18.6 nM | TGI (NCI-H460 lung): 147 nM | GI50 (HOP-92 NSCLC): 104 nM | TGI (HOP-92 NSCLC): 2770 nM | GI50 (MDA-MB-435): 120 nM | TGI (MDA-MB-435): 527 nM | GI50 (COLO 205 colon): 321 nM | TGI (COLO 205 colon): 1010 nM | GI50 (KM12 colon): 167 nM | TGI (KM12 colon): 504 nM | GI50 (U251 CNS): 23.7 nM | GI50 (EKVX NSCLC): 187 nM | TGI (EKVX NSCLC): 2600 nM | GI50 (OVCAR-5 ovarian): 435 nM | TGI (OVCAR-5 ovarian): 2230 nM | GI50 (SW-620 colon): < 11.3 nM | TGI (SW-620 colon): 500 nM | GI50 (T-47D breast): 827 nM | TGI (T-47D breast): 10500 nM | GI50 (SR leukemia): < 10 nM | TGI (SR leukemia): > 100000 nM | GI50 (PC-3 prostate): 133 nM | TGI (PC-3 prostate): 2420 nM | GI50 (A549 NSCLC): 58.6 nM | TGI (A549 NSCLC): 14900 nM | GI50 (HOP-62 NSCLC): 27 nM | TGI (HOP-62 NSCLC): 163 nM | GI50 (HCT-15 colon): < 10 nM | TGI (HCT-15 colon): 127 nM | GI50 (NCI-H23 lung): 118 nM | TGI (NCI-H23 lung): 612 nM | GI50 (SN12C renal): 22.1 nM | TGI (SN12C renal): 318 nM | GI50 (SK-MEL-28 melanoma): 174 nM | TGI (SK-MEL-28 melanoma): 614 nM | GI50 (OVCAR-8 ovarian): 11.5 nM | TGI (OVCAR-8 ovarian): 109 nM | GI50 (CCRF-CEM leukemia): 25.1 nM | GI50 (CAKI-1 renal): < 10 nM | TGI (CAKI-1 renal): 150 nM | GI50 (SNB-19 CNS): 42.4 nM | TGI (SNB-19 CNS): 959 nM | GI50 (SK-OV-3 ovarian): 50 nM | TGI (SK-OV-3 ovarian): 874 nM | GI50 (NCI-H522 lung): 43.4 nM | TGI (NCI-H522 lung): 330 nM | GI50 (NCI-H226 lung): < 15 nM | TGI (NCI-H226 lung): 121 nM | GI50 (MOLT-4 leukemia): 290 nM | TGI (MOLT-4 leukemia): > 20500 nM | GI50 (SF-268 CNS): 34.1 nM | TGI (SF-268 CNS): 1010 nM | GI50 (MDA-N): 110 nM | TGI (MDA-N): 366 nM | GI50 (DU-145 prostate): < 18.7 nM | TGI (DU-145 prostate): 147 nM | GI50 (786-0 renal): < 10 nM | TGI (786-0 renal): 30.5 nM | GI50 (HL-60(TB) leukemia): 20.6 nM | GI50 (HS 578T breast): 271 nM | TGI (HS 578T breast): 1330 nM | GI50 (UACC-257 melanoma): 253 nM | TGI (UACC-257 melanoma): 849 nM | GI50 (MDA-MB-231 breast): 131 nM | TGI (MDA-MB-231 breast): 647 nM | GI50 (HCT-116 colon): < 10 nM | TGI (HCT-116 colon): 27 nM | GI50 (RPMI-8226 leukemia): 168 nM | TGI (RPMI-8226 leukemia): 983 nM | GI50 (ACHN renal): < 10 nM | GI50 (BT-549 breast): 150 nM | TGI (BT-549 breast): 1760 nM | GI50 (MALME-3M melanoma): 22 nM | TGI (MALME-3M melanoma): 205 nM | GI50 (SF-539 CNS): < 13.1 nM | TGI (SF-539 CNS): 82 nM | GI50 (SK-MEL-5 melanoma): 37.3 nM | TGI (SK-MEL-5 melanoma): 106 nM | GI50 (SF-295 CNS): 172 nM | TGI (SF-295 CNS): 751 nM | GI50 (K-562 leukemia): 47.8 nM | GI50 (UACC-62 melanoma): 135 nM | TGI (UACC-62 melanoma): 403 nM | GI50 (RXF 393 renal): < 34.3 nM | TGI (RXF 393 renal): 841 nM
